Assay [1] deals with Mus musculus. The assay is described as follows: Reduction in LPS-induced acute lung injury in mouse assessed as reduction in number of cells in BALF at 5 mg/kg dosed 2 hrs post LPS challenge. The format is functional, organism-based.
The test system of assay [2] is Mus musculus. The assay is described as follows: Reduction in LPS-induced acute lung injury in mouse assessed as reduction in protein concentration at 5 mg/kg dosed 2 hrs post LPS challenge. It is filed as functional, organism-based.
The species named for assay [3] is Homo sapiens. The assay is described as follows: Antiinvasive activity against human LOX cells assessed as inhibition of 5% FBS-induced cell invasion at 30 uM by Matrigel based cell invasion assay. The format is functional.
The test system of assay [4] is Mus musculus. Briefly: Reduction in oxygen-induced retinopathy in mouse placed in 75% oxygen-environment from day 5 to 12 assessed as reduction in neovascularization at 5 ug dosed via intraocular injection on day 12 and 15 and measured on day 17. The format is functional, organism-based.
Assay [5] has as its system Mus musculus. Briefly: Anti-inflammatory activity in mouse model of collagen-induced arthritis assessed as reduction in arthritic index at 10 to 60 mg/kg, BID for 14 days and measured up to 15 days post dose. It is filed as functional, organism-based.
The test system of assay [6] is Mus musculus. Briefly: Inhibition of VEGF-induced retinal permeability in mouse at 500 ng dosed as single intraocular injection followed by Evan blue dye injection 6 hrs post drug dose and measured after 2 hrs. It is filed as functional, organism-based.
The subject of a further assay is Influenza A virus. The assay is described as follows: Antiviral activity against Influenza A virus (H1N1) infected in mouse assessed as reduction in virus-infection induced mortality by measuring mouse survival at 20 mg/kg, ip qd for 5 days dosed 4 hrs before virus infection. The format is functional, organism-based.
The subject of another assay is Rattus norvegicus. The assay is described as follows: Inhibition of VEGF-induced retinal permeability in rat assessed as reduction in vascular leak at 60 mg/kg, ip dosed 1 hr before VEGF injection on day1 followed by Evan blue dye injection on day2 and measured on day 3. The format is functional, organism-based.
Assay [7] has as its system Mus musculus. Briefly: Inhibition of VEGF-induced retinal permeability in mouse at 50 ng dosed as single intraocular injection followed by Evan blue dye injection 6 hrs post drug dose and measured after 2 hrs. It is filed as functional, organism-based.
In another assay the test system is LN-229. The assay is described as follows: Antiproliferative activity against human LN229 cells assessed as inhibition of cell proliferation at >1 uM by WST8 dye based colorimetric assay. It is filed as functional.
The species entered for assay [8] is Homo sapiens. The assay is described as follows: Antiproliferative activity against human LOX cells assessed as inhibition of cell proliferation at >1 uM by WST8 dye based colorimetric assay. It is filed as functional.
Assay [9] deals with PH and SEC7 domain-containing protein 1 (Mus musculus) (UniProt Q5DTT2). The assay is described as follows: Inhibition of Arf6 activation in mouse NIH/3T3 cells assessed as effect on GTP-bound Arf6 incubated for 4 hrs immobilized GST-tagged Gga3 by based pull down assay. It is filed as cell-based.
Assay [10] can be described thus: Antiinvasive activity against human LOX cells assessed as inhibition of 5% FBS-induced cell invasion at 1 uM by Matrigel based cell invasion assay. It is filed as functional.
Assay [11] relates to Mus musculus. Briefly: Inhibition of choroidal neovascularization in mouse with laser-induced Bruch's membrane disruption dosed on day 0 and 7 and measured on day 14. The format is functional, organism-based.
Assay [12] has as its system Mus musculus. Briefly: Reduction in LPS-induced acute lung injury in mouse assessed as reduction in number of cells in BALF at 60 mg/kg dosed 3 hrs post LPS challenge. It is filed as functional, organism-based.
Assay [13] has as its system Mus musculus. The assay is described as follows: Reduction in LPS-induced acute lung injury in mouse assessed as reduction in number of cells in BALF at 60 mg/kg dosed 4 hrs post LPS challenge. The format is functional, organism-based.
Assay [14] relates to Mus musculus. The assay is described as follows: Reduction in LPS-induced acute lung injury in mouse assessed as reduction in protein concentration at 60 mg/kg dosed 3 hrs post LPS challenge. The format is functional, organism-based.
Assay [15] deals with Mus musculus. The assay is described as follows: Reduction in LPS-induced acute lung injury in mouse assessed as reduction in protein concentration at 60 mg/kg dosed 4 hrs post LPS challenge. The format is functional, organism-based.
The subject of assay [16] is Mus musculus. Briefly: Inhibition of choroidal neovascularization in mouse with laser-induced Bruch's membrane disruption at 5 ug dosed on day 0 and 7 and measured on day 14. It is filed as functional, organism-based.
Assay [17] deals with Mus musculus. The assay is described as follows: Inhibition of VEGF-induced retinal permeability in mouse at 5 ug dosed as single intraocular injection followed by Evan blue dye injection 6 hrs post drug dose and measured after 2 hrs. The format is functional, organism-based.

SMILES strings stand for the structures. Calls of active or inactive are those of the source. No cut-off for these calls is given here.

In general, inhibition refers to how much of the control response was suppressed.

Chain of PH and SEC7 domain-containing protein 1 (Mus musculus) (Q5DTT2 whole entry, the tested form may be a part): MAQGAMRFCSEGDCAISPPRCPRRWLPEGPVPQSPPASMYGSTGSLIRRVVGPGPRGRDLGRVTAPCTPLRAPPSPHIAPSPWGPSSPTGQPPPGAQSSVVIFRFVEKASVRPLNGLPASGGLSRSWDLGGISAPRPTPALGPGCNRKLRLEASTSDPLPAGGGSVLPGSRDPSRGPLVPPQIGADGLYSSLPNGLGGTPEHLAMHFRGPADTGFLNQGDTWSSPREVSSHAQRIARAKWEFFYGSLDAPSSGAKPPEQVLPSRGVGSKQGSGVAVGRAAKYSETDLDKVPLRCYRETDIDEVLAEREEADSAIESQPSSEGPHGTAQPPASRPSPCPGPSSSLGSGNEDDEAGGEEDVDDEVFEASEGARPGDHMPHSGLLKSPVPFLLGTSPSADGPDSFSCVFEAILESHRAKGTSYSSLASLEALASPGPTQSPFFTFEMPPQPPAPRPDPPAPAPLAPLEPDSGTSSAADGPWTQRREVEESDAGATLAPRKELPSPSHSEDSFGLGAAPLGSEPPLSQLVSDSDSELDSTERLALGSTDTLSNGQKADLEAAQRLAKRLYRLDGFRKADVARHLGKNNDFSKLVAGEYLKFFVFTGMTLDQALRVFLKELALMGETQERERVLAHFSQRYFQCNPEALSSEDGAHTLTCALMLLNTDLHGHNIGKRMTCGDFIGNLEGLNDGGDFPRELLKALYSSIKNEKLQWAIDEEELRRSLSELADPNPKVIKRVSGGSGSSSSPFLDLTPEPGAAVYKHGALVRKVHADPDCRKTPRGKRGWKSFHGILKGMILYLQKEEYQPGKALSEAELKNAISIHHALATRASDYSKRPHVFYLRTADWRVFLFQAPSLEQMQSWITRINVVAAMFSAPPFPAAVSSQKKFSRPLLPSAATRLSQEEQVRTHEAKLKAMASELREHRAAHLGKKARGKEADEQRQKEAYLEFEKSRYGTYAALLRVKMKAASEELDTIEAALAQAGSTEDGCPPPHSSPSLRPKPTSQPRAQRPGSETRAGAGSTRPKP

As for `C[C@@H]1C[C@H]2[C@@H]3CCC4=CC(=O)C=C[C@]4(C)[C@@]3(F)[C@@H](O)C[C@]2(C)[C@@]1(O)C(=O)CO`, the inhibition result with Mus musculus [1] and in the assay with Mus musculus [2] was “Active” each time.

On to `COc1nc(-c2ccc3c(c2)OCO3)n(-c2ccc(NC(=O)CSc3ccccc3)cc2)n1`, for which the inhibition entry in the assay filed under Homo sapiens [3] was “Active”.

Take `O=c1cc(-c2cccc(Oc3ccccc3)c2)[nH]c2c(-c3ccc(Cl)c(Cl)c3)c(C(F)(F)F)nn12`: in the assay with Mus musculus [4], the inhibition entry is “Active”. Further, the Activity entry with Mus musculus [5] was “Dose-dependent effect”.

Regarding `O=c1cc(Cc2ccccc2)[nH]c2c(-c3ccc(Cl)cc3)c(C(F)(F)F)nn12`, the inhibition entry in the assay with Mus musculus [6] was “Active”. Besides, the result in the assay with Influenza A virus was Active.

With `O=c1cc(-c2ccc([N+](=O)[O-])cc2)[nH]c2c(-c3ccc(Cl)cc3)c(Cc3ccccc3)nn12`, the inhibition entry (in the assay with Rattus norvegicus; with Mus musculus [7]; in the assay with Mus musculus [6]; in the assay on LN-229; in the assay listed under Homo sapiens [8]; in assay [9]) was “Active” each time. Besides, the inhibition result in the assay with Mus musculus [4], in the assay on Mus musculus [12], in the assay on Mus musculus [13], in the assay with Mus musculus [14] and in the assay on Mus musculus [15] was “Active” in each case. Also, in [10], the inhibition at 1 µM was found to be 100%. For the same molecule, the inhibition result in the assay on Mus musculus [11] is “Dose-dependent effect”.

`CN(C)c1ccc(/C=C2/C(=O)Nc3ccccc32)cc1`: the inhibition result in the assay on Mus musculus [16] and in the assay with Mus musculus [4] was “Active” each time. In addition, the inhibition result in the assay on Mus musculus [17] was “inactive”.

Regarding `COc1ccc(-c2c(Cc3ccccc3)nn3c(=O)cc(C)[nH]c23)cc1`, the inhibition result with Mus musculus [6] is “Active”.

Source of the values: ChEMBL document CHEMBL4476870, “Arf6 inhibitors and methods of synthesis and use thereof” (2017).
